Experimental data taken from US20260159512A1, “BCAT2 INHIBITORS” (AGIOS PHARMACEUTICALS, INC., priority 2021, published 2026).

Columns and labels:
Conditions in all cases: average where tested multiple times
BCAT2 [1] = target: T1, BCAT2 (Homo sapiens, UniProt O15382); assay: BCAT2 in vitro cell inhibition using engineered A549 cells (KMV cell assay, 13C6-KMV by LC-MS/MS); format: cell-based; set-up: The result was an engineered A549 cell line that expressed endogenous BCAT2; endogenous in cells; host or cells: A549 cells with MUT and BCAT1 knocked out by CRISPR/CAS9; key to BCAT2 Cell Inhibition: A: less than or equal to 0.100 μM; B: greater than 0.100 and less than or equal to 0.500 μM; C: greater than 0.500 and less than or equal to 1.000 μM; d: greater than 1.000 μM; E: no fit
T1 sequence (O15382 28-392): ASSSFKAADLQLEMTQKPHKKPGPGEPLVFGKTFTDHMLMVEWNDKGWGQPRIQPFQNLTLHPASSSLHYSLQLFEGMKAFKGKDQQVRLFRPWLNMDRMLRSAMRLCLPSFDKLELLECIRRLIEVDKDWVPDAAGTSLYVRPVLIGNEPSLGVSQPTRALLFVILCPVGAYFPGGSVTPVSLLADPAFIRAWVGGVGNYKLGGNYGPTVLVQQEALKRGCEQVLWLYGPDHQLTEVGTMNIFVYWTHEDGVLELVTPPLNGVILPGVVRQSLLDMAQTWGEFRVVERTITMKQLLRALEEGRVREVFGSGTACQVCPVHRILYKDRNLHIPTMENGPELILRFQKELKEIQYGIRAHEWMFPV

BCAT2 [2] = target: T1, BCAT2; assay: BCAT2 in vitro enzyme inhibition assay (resazurin/diaphorase-coupled fluorescence); format: biochemical
How it was run: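 Coupled fluorescence readout: glutamate formed from L-leucine/α-ketoglutarate transamination drives GDH/NAD/diaphorase reduction of resazurin (Ex 540/Em 590). Human BCAT2 was first exposed 1 h at room temperature to compound, top final 100 μM in 3-fold, 10-point series; substrate reaction ran 1 h before SDS quench, in technical duplicate with DMSO max and enzyme-free min controls.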

hBCAT1 = target: T2, hBCAT1 (Homo sapiens, UniProt P54687); assay: BCAT1 in vitro enzyme inhibition assay (resazurin/diaphorase-coupled fluorescence); format: biochemical
T2 sequence (P54687 1-386): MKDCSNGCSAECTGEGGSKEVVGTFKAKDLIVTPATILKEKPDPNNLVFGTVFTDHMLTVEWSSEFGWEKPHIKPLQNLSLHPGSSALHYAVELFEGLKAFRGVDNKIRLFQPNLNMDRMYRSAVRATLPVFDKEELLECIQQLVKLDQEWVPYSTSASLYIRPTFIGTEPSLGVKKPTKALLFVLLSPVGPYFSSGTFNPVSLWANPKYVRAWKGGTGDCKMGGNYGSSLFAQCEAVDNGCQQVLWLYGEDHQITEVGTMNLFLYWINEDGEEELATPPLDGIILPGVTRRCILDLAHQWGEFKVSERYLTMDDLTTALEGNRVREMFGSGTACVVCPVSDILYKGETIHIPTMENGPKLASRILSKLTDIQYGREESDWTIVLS
How it was run: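 Ten-point, 3-fold compound series (top final 100 μM, delivered 1:50 from 50× DMSO stocks) tested against hBCAT1. Inhibition detected via diaphorase-coupled resazurin fluorescence, duplicate wells, with values from repeated runs averaged.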

SMILES | IC50 (BCAT2 [1]) | IC50 (BCAT2 [2]) | IC50 (hBCAT1) | BCAT2 Cell Inhibition (BCAT2 [1])
O=C(N[C@H]1C[C@H](O)C[C@@H](n2c(-c3ccccc3F)nc3cnc(-c4ccccn4)cc32)C1)c1ncc(Cl)s1 (single isomer, unassigned) [Example 252] | ≤ 100 nM | ≤ 100 nM | < 500 nM | 
O=C(NC1CC(O)CC(n2c(-c3ccccc3F)nc3cnc(-n4nccn4)cc32)C1)c1ncc(C(F)F)s1 (stereo not drawn) [Example 106, 5-(difluoromethyl)-N-(3-(2-(2-fluorophenyl)-6-(2H-1,2,3-triazol-2-yl)-1H-imidazo[4,5-c]pyridin-1-yl)-5-hydroxycyclohexyl)thiazole-2-carboxamide] | ≤ 100 nM | ≤ 100 nM | < 500 nM | 
O=C(N[C@H]1CCC[C@@H](n2c(-c3ccccc3F)nc3cnc(-n4nccn4)cc32)C1)c1ncc(Cl)s1 [Example 71, 5-chloro-N-((1S,3R)-3-(2-(2-fluorophenyl)-6-(2H-1,2,3-triazol-2-yl)-1H-imidazo[4,5-c]pyridin-1-yl)cyclohexyl)thiazole-2-carboxamide] | ≤ 100 nM | ≤ 100 nM | < 500 nM | 
O=C(N[C@H]1CCC[C@@H](n2c(-c3ncccc3F)nc3cnc(-c4ncco4)cc32)C1)c1ccc(Br)s1 [Example 6, 5-bromo-N-((1S,3R)-3-(2-(3-fluoropyridin-2-yl)-6-(oxazol-2-yl)-1H-imidazo[4,5-c]pyridin-1-yl)cyclohexyl)thiophene-2-carboxamide] | ≤ 100 nM | ≤ 100 nM | < 500 nM | 
O=C(N[C@H]1CCC[C@@H](n2c(-c3ccccc3F)nc3cnc(-n4nccn4)cc32)C1)c1ncc(C(F)F)s1 [Example 25, 5-(difluoromethyl)-N-((1S,3R)-3-(2-(2-fluorophenyl)-6-(2H-1,2,3-triazol-2-yl)-1H-imidazo[4,5-c]pyridin-1-yl)cyclohexyl)thiazole-2-carboxamide] | ≤ 100 nM | ≤ 100 nM | < 500 nM | 
O=C(N[C@H]1CCC[C@@H](n2c(-c3ccccc3F)nc3cnc(-c4nn[nH]n4)cc32)C1)c1ccc(Cl)s1 [Example 82, 5-chloro-N-((1S,3R)-3-(2-(2-fluorophenyl)-6-(2H-tetrazol-5-yl)-1H-imidazo[4,5-c]pyridin-1-yl)cyclohexyl)thiophene-2-carboxamide] | 500 to 1000 nM | ≤ 100 nM | < 500 nM | 
Cn1cc(-c2nc3cnc(-n4nccn4)cc3n2[C@@H]2CCC[C@H](NC(=O)c3ncc(C(F)F)s3)C2)cn1 [Example 45, 5-(difluoromethyl)-N-((1S,3R)-3-(2-(1-methyl-1H-pyrazol-4-yl)-6-(2H-1,2,3-triazol-2-yl)-1H-imidazo[4,5-c]pyridin-1-yl)cyclohexyl)thiazole-2-carboxamide] |  | > 1000 nM | > 5000 nM | E
O=C(N[C@H]1CCC[C@@H](n2c(-n3nccn3)nc3cnc(-n4nccn4)cc32)C1)c1ncc(C(F)F)s1 [Example 67, N-((1S,3R)-3-(2,6-di(2H-1,2,3-triazol-2-yl)-1H-imidazo[4,5-c]pyridin-1-yl)cyclohexyl)-5-(difluoromethyl)thiazole-2-carboxamide] | > 1000 nM | 100 to 500 nM | > 5000 nM | 

Continued, values first:

IC50 (BCAT2 [1]) | IC50 (BCAT2 [2]) | IC50 (hBCAT1) | BCAT2 Cell Inhibition (BCAT2 [1]) | SMILES
≤ 100 nM | ≤ 100 nM | < 500 nM |  | CC(C)Cc1nc2cnc(-n3nccn3)cc2n1[C@@H]1CCC[C@H](NC(=O)c2ccc(Cl)s2)[C@H]1O [Example 393, 5-chloro-N-((1S,2R,3R)-2-hydroxy-3-(2-isobutyl-6-(2H-1,2,3-triazol-2-yl)-1H-imidazo[4,5-c]pyridin-1-yl)cyclohexyl)thiophene-2-carboxamide]
≤ 100 nM | ≤ 100 nM | < 500 nM |  | CC(C)(C)Cc1nc2cnc(-c3nc[nH]n3)cc2n1[C@@H]1CCC[C@H](NC(=O)c2ncc(Cl)s2)C1 [Example 162, 5-chloro-N-((1S,3R)-3-(2-neopentyl-6-(1H-1,2,4-triazol-3-yl)-1H-imidazo[4,5-c]pyridin-1-yl)cyclohexyl)thiazole-2-carboxamide]
> 1000 nM | ≤ 100 nM | 500 to 1000 nM |  | NCc1ccccc1-c1nc2cnc(-c3nc[nH]n3)cc2n1[C@@H]1CCC[C@H](NC(=O)c2ncc(Cl)s2)C1 [Example 366, N-((1S,3R)-3-(2-(2-(aminomethyl)phenyl)-6-(1H-1,2,4-triazol-3-yl)-1H-imidazo[4,5-c]pyridin-1-yl)cyclohexyl)-5-chlorothiazole-2-carboxamide]
≤ 100 nM | ≤ 100 nM | < 500 nM |  | CC(C)Cc1nc2cnc(-c3nc[nH]n3)cc2n1[C@@H]1CCC[C@H](NC(=O)c2ccc(C#N)s2)C1 [Example 344, 5-cyano-N-((1S,3R)-3-(2-isobutyl-6-(1H-1,2,4-triazol-3-yl)-1H-imidazo[4,5-c]pyridin-1-yl)cyclohexyl)thiophene-2-carboxamide]
500 to 1000 nM | ≤ 100 nM | 500 to 1000 nM |  | CC(C)Cc1nc2cnc(-c3nc(Cl)cs3)cc2n1[C@@H]1CCC[C@H](NC(=O)c2ncc(Cl)s2)C1 [Example 329, 5-chloro-N-((1S,3R)-3-(6-(4-chlorothiazol-2-yl)-2-isobutyl-1H-imidazo[4,5-c]pyridin-1-yl)cyclohexyl)thiazole-2-carboxamide]
≤ 100 nM | ≤ 100 nM | < 500 nM |  | O=C(N[C@H]1CCC[C@@H](n2c(-c3ncccc3F)nc3cnc(-c4nc[nH]n4)cc32)C1)c1ncc(Cl)s1 [Example 175, 5-chloro-N-((1S,3R)-3-(2-(3-fluoropyridin-2-yl)-6-(1H-1,2,4-triazol-3-yl)-1H-imidazo[4,5-c]pyridin-1-yl)cyclohexyl)thiazole-2-carboxamide]
500 to 1000 nM | ≤ 100 nM | 500 to 1000 nM |  | CC(C)Cc1nc2cnc(-c3cccc(F)n3)cc2n1[C@@H]1CCC[C@H](NC(=O)c2ncc(Cl)s2)C1 [Example 160, 5-chloro-N-((1S,3R)-3-(6-(6-fluoropyridin-2-yl)-2-isobutyl-1H-imidazo[4,5-c]pyridin-1-yl)cyclohexyl)thiazole-2-carboxamide]
500 to 1000 nM | 100 to 500 nM | < 500 nM |  | O=C(N[C@@H]1C[C@@H](O)C[C@H](n2c(-c3ccccc3F)nc3cnc(-n4nccn4)cc32)C1)c1ncc(C(F)F)s1 (single isomer, unassigned) [Example 107]
100 to 500 nM | ≤ 100 nM | 500 to 1000 nM |  | O=C(N[C@H]1CCC[C@@H](n2c(-c3ccccc3F)nc3cnc(-c4ccncc4)cc32)C1)c1ncc(Cl)s1 [Example 178, 5-chloro-N-((1S,3R)-3-(2-(2-fluorophenyl)-6-(pyridin-4-yl)-1H-imidazo[4,5-c]pyridin-1-yl)cyclohexyl)thiazole-2-carboxamide]
100 to 500 nM | ≤ 100 nM | < 500 nM |  | CC(C)Cc1nc2cnc(-c3nc[nH]n3)cc2n1[C@@H]1CCC[C@H](NC(=O)c2ncc(C#N)s2)C1 [Example 349, 5-cyano-N-((1S,3R)-3-(2-isobutyl-6-(1H-1,2,4-triazol-3-yl)-1H-imidazo[4,5-c]pyridin-1-yl)cyclohexyl)thiazole-2-carboxamide]
≤ 100 nM | ≤ 100 nM | < 500 nM |  | N#CCc1ccccc1-c1nc2cnc(-c3nc[nH]n3)cc2n1[C@@H]1CCC[C@H](NC(=O)c2ncc(Cl)s2)C1 [Example 355, 5-chloro-N-((1S,3R)-3-(2-(2-(cyanomethyl)phenyl)-6-(1H-1,2,4-triazol-3-yl)-1H-imidazo[4,5-c]pyridin-1-yl)cyclohexyl)thiazole-2-carboxamide]
> 1000 nM | ≤ 100 nM | 1000 to 5000 nM |  | O=C(N[C@H]1CCC[C@@H](n2c(Oc3ccccc3F)nc3cnc(-c4nc[nH]n4)cc32)C1)c1ncc(Cl)s1 [Example 192, 5-chloro-N-((1S,3R)-3-(2-(2-fluorophenoxy)-6-(1H-1,2,4-triazol-3-yl)-1H-imidazo[4,5-c]pyridin-1-yl)cyclohexyl)thiazole-2-carboxamide]
